Assay results published in US20180353501A1 (Arvinas, Inc., priority 2017, published 2018).
Like-named read-outs stand apart in the source and are kept apart here.

How the values were obtained:
[1] = Pharmacokinetics of intraperitoneal or intravenous injection in CD1 mice (plasma, LC/MS/MS); assay type: in vivo; settings: for concentration at 0.25 h / concentration at 0.5 h / concentration at 1 h / concentration at 2 h / concentration at 4 h / concentration at 8 h / concentration at 24 h / concentration at 0.033 h / concentration at 0.083 h: male, CD1, mouse, plasma
Protocol: Pharmacokinetics of Intraperitoneal or Intravenous Injection of Example 1 or Example 2.
The pharmacokinetics of Example 1 and 2 was examined for intraperitoneal and intravenous administration. The desired serial concentrations of working solutions were achieved by diluting stock solution (1 mg/mL in DMSO) of analyte with methanol. In particular, 20 μL of working solutions (1, 2, 5, 10, 50, 100, 500, 1000, 2000 ng/mL) were added to 20 μL of the blank CD1 mice plasma to achieve calibration standards of 1-2000 ng/mL (1, 2, 5, 10, 50, 100, 500, 1000, 2000 ng/mL) in a total volume of 40 pt. Dose of IV and IP were diluted by 1000 fold and 10000 with methanol, 20 μL of the diluted dose solutions were added to 20 μL of the blank CD1 mice plasma to achieve dose samples. Next, 40 μL standards and 40 μL dose samples were added to 20 μL of assay Internal Standard (100 ng/mL) and 200 μL of acetonitrile for precipitating protein respectively. Then the samples were vortexed for 30 seconds. After centrifugation at 4 degree Celsius, 4000 rpm for 15 min, the supernatant was diluted 3 times with water. Then, 10 μL of the diluted supernatant was injected into the LC/MS/MS system for quantitative analysis.
Examples 1 and 2 were administered intravenously (5 second injection of 10% HP-b-CD and 40 mM sodium acetate and 40 mM NaCl in water, pH4.5) or intraperitoneally (5% EtOH and 5% Solutol HS15 in D5W(ESD-2)) to 6-8 week old male CD1 mice (3 mice per treatment group for a total of 12 mice) at the time points indicated below in Table 3. The mice had free access to food and water.
Dorsal metatarsal vein samples (30 μL), except that the final sample was acquired via a heart puncture, were taken from the mice at the same the administration time points as shown in Table 2.
The data for Example 1 is shown below in FIG. 5 and Tables 5 (FIG. 6), 6 and 7. The data for Example 2 is shown in FIG. 7 and Tables 8 (FIG. 8), 9, and 10.

MET = target: T1, MET (Homo sapiens, UniProt P08581); assay: KINOMEscan in vitro kinase binding; settings: screened at 1000 nM
T1 construct: purchased DiscoverRx Corporation (KINOMEscan platform, service)
Protocol: (§1) PROTAC in vitro binding affinities (Kd) to c-Met was determined using the KINOMEscan™ platform (DiscoverRx Corporation). The compounds were solubilized in DMSO and sent to DiscoverRx Corporation as 10 μM stock solutions.

MET (Y1235D) = target: T2, MET (Y1235D) (Homo sapiens, UniProt P08581, Y1235D); assay: KINOMEscan in vitro kinase binding; settings: screened at 1000 nM; lower number = stronger binding
T2 construct: purchased DiscoverRx Corporation (KINOMEscan platform, service)
Protocol: as §1

[2] = ip, 10 mg/kg, IP 10 mg/kg, read-out: Conc. Mean
[3] = ip, 10 mg/kg, IP 10 mg/kg, read-out: Conc. Mouse 1
[4] = ip, 10 mg/kg, IP 10 mg/kg, read-out: Conc. Mouse 2
[5] = ip, 10 mg/kg, IP 10 mg/kg, read-out: Conc. Mouse 3
[6] = iv, 1 mg/kg, IV 1.0 mg/kg, read-out: Conc. Mean
[7] = iv, 1 mg/kg, IV 1.0 mg/kg, read-out: Conc. Mouse 1
[8] = iv, 1 mg/kg, IV 1.0 mg/kg, read-out: Conc. Mouse 2
[9] = iv, 1 mg/kg, IV 1.0 mg/kg, read-out: Conc. Mouse 3

- Conc. Mouse 1 ([1]; IV 1.0 mg/kg, 24 h): BLOQ
- Conc. Mouse 2 ([1]; IV 1.0 mg/kg, 24 h): BLOQ
- concentration at 0.25 h [1, 2]: 2200 ng/mL
- concentration at 0.25 h [1, 3]: 3420 ng/mL
- concentration at 0.25 h [1, 4]: 2180 ng/mL
- concentration at 0.25 h [1, 5]: 990 ng/mL
- concentration at 0.5 h [1, 2]: 3310 ng/mL
- concentration at 0.5 h [1, 3]: 5210 ng/mL
- concentration at 0.5 h [1, 4]: 2500 ng/mL
- concentration at 0.5 h [1, 5]: 2210 ng/mL
- concentration at 1 h [1, 2]: 5530 ng/mL
- concentration at 1 h [1, 3]: 4470 ng/mL
- concentration at 1 h [1, 4]: 9060 ng/mL
- concentration at 1 h [1, 5]: 3050 ng/mL
- concentration at 2 h [1, 2]: 7500 ng/mL
- concentration at 2 h [1, 3]: 5740 ng/mL
- concentration at 2 h [1, 4]: 6210 ng/mL
- concentration at 2 h [1, 5]: 10500 ng/mL
- concentration at 4 h [1, 2]: 4520 ng/mL
- concentration at 4 h [1, 3]: 6340 ng/mL
- concentration at 4 h [1, 4]: 3740 ng/mL
- concentration at 4 h [1, 5]: 3460 ng/mL
- concentration at 8 h [1, 2]: 411 ng/mL
- concentration at 8 h [1, 3]: 476 ng/mL
- concentration at 8 h [1, 4]: 329 ng/mL
- concentration at 8 h [1, 5]: 429 ng/mL
- concentration at 24 h ([1]; ip, 10 mg/kg, IP 10 mg/kg, 24 h, read-out: Conc. Mean): 12.3 ng/mL
- concentration at 24 h ([1]; ip, 10 mg/kg, IP 10 mg/kg, 24 h, read-out: Conc. Mouse 1): 12.2 ng/mL
- concentration at 24 h ([1]; ip, 10 mg/kg, IP 10 mg/kg, 24 h, read-out: Conc. Mouse 2): 9.43 ng/mL
- concentration at 24 h ([1]; ip, 10 mg/kg, IP 10 mg/kg, 24 h, read-out: Conc. Mouse 3): 15.1 ng/mL
- concentration at 0.033 h [1, 6]: 2350 ng/mL
- concentration at 0.033 h [1, 7]: 2050 ng/mL
- concentration at 0.033 h [1, 8]: 2820 ng/mL
- concentration at 0.033 h [1, 9]: 2190 ng/mL
- concentration at 0.083 h [1, 6]: 1530 ng/mL
- concentration at 0.083 h [1, 7]: 1200 ng/mL
- concentration at 0.083 h [1, 8]: 1810 ng/mL
- concentration at 0.083 h [1, 9]: 1590 ng/mL
- concentration at 0.25 h [1, 6]: 691 ng/mL
- concentration at 0.25 h [1, 7]: 491 ng/mL
- concentration at 0.25 h [1, 8]: 991 ng/mL
- concentration at 0.25 h [1, 9]: 590 ng/mL
- concentration at 0.5 h [1, 6]: 397 ng/mL
- concentration at 0.5 h [1, 7]: 280 ng/mL
- concentration at 0.5 h [1, 8]: 497 ng/mL
- concentration at 0.5 h [1, 9]: 413 ng/mL
- concentration at 1 h [1, 6]: 143 ng/mL
- concentration at 1 h [1, 7]: 142 ng/mL
- concentration at 1 h [1, 8]: 135 ng/mL
- concentration at 1 h [1, 9]: 153 ng/mL
- concentration at 2 h [1, 6]: 70.3 ng/mL
- concentration at 2 h [1, 7]: 55.5 ng/mL
- concentration at 2 h [1, 8]: 92.9 ng/mL
- concentration at 2 h [1, 9]: 62.3 ng/mL
- concentration at 4 h [1, 6]: 15.4 ng/mL
- concentration at 4 h [1, 7]: 16.8 ng/mL
- concentration at 4 h [1, 8]: 15.4 ng/mL
- concentration at 4 h [1, 9]: 13.9 ng/mL
- concentration at 8 h [1, 6]: 8.6 ng/mL
- concentration at 8 h [1, 7]: 10.1 ng/mL
- concentration at 8 h [1, 8]: 10.6 ng/mL
- concentration at 8 h [1, 9]: 5.2 ng/mL
- concentration at 24 h ([1]; iv, 1 mg/kg, IV 1.0 mg/kg, 24 h, read-out: Conc. Mouse 3): 0.971 ng/mL
- binding to MET (in words) (MET): strong binding to MET
- % Ctrl (MET; lower number = stronger binding): 0.75 % Ctrl
- % Ctrl (MET (Y1235D)): 8.2 % Ctrl
Compound: COc1cc2c(Oc3ccc(NC(=O)C4(C(=O)Nc5ccc(F)cc5)CC4)cc3F)ccnc2cc1OCCCOCCCOCCC(=O)N[C@H](C(=O)N1C[C@H](O)C[C@H]1C(=O)NCc1ccc(-c2scnc2C)cc1)C(C)(C)C [Example 1]
